The target of this experiment is hCRTH2 receptor (Homo sapiens (Human), UniProt Q9Y5Y4). Description: hCRTH2 receptor membranes radioligand (3H-PGD2) displacement assay. As to conditions: hCRTH2 membrane fragments, Binding-Buffer with 0.1% BSA. The procedure, abridged:
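Membranes from HEK293 cells expressing recombinant hCRTH2 (20 μg/well) incubated with compound and ³H-PGD2 for 90 min at room temperature in Tris buffer pH 7.0 with NaCl, EDTA, 0.1% BSA, 10 mM MnCl2. Bound radioactivity collected on PEI-treated GF/C filters and counted; non-specific binding defined with excess PGD2.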

pIC50: −log10 of the molar value.

Chain of hCRTH2 receptor (Q9Y5Y4 whole entry, the tested form may be a part): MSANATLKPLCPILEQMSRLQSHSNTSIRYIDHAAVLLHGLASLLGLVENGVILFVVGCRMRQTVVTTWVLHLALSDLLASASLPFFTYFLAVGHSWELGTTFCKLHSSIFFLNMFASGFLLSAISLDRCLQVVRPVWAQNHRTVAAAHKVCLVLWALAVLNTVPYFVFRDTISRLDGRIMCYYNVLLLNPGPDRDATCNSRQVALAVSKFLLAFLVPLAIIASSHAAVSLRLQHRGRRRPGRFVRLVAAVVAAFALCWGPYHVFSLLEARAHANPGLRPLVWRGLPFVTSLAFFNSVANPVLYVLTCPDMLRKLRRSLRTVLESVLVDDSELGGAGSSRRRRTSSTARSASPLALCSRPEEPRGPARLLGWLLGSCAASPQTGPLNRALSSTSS

What is called pIC50 is the negative decadic logarithm of the IC50, by convention in mol/L. A low value points to a high IC50. `O=C(O)COc1ccc(Cl)cc1[C@@H]1c2scnc2CCN1C(=O)[C@@H]1C[C@H]1c1cccc(F)c1` [Example 7, (4-Chloro-2-{(R)-5-[(1R,2R)-2-(3-fluoro-phenyl)-cyclopropanecarbonyl]-4,5,6,7-tetrahydro-thiazolo[5,4-c]pyridin-4-yl}-phenoxy)-acetic acid] gave a pIC50 of 8.55.
The value for `O=C(O)COc1ccc(Cl)cc1[C@@H]1c2scnc2CCN1C(=O)[C@@H]1C[C@H]1c1ccc(F)cc1` [Example 8, (4-Chloro-2-{(R)-5-[(1R,2R)-2-(4-fluoro-phenyl)-cyclopropanecarbonyl]-4,5,6,7-tetrahydro-thiazolo[5,4-c]pyridin-4-yl}-phenoxy)-acetic acid] was 8.30; that for `CC(C)(C)CCOC(=O)N1CCc2ncsc2[C@H]1c1cc(Cl)ccc1OCC(=O)O` [Example 65, (R)-4-(2-Carboxymethoxy-5-chloro-phenyl)-6,7-dihydro-4H-thiazolo[5,4-c]pyridine-5-carboxylic acid 3,3-dimethyl-butyl ester] was 8.89.
The value for `O=C(O)COc1ccc(Cl)cc1C1c2scnc2CCN1C(=O)OCc1nc2ccccc2o1` (racemic) [Example 97, (±)-4-(2-Carboxymethoxy-5-chloro-phenyl)-6,7-dihydro-4H-thiazolo[5,4-c]pyridine-5-carboxylic acid benzooxazol-2-ylmethyl ester] was 8.29; that for `COc1ccc(/C=C/C(=O)N2CCc3ncsc3C2c2cc(Cl)ccc2OCC(=O)O)cc1` (racemic) [Example 54, (±)-(4-Chloro-2-{5-[(E)-3-(4-methoxy-phenyl)-acryloyl]-4,5,6,7-tetrahydro-thiazolo[5,4-c]pyridin-4-yl}-phenoxy)-acetic acid] was 7.39; that for `O=C(O)COc1ccc(Cl)cc1[C@@H]1c2scnc2CCN1C(=O)C[C@H]1OCCc2ccccc21` (racemic) [Example 39, (±)-{4-Chloro-2-[5-((±)-2-isochroman-1-yl-acetyl)-4,5,6,7-tetrahydro-thiazolo[5,4-c]pyridin-4-yl]-phenoxy}-acetic acid] was 7.00.
The value for `O=C(O)COc1ccc(Cl)cc1C1c2scnc2CCN1C(=O)NCc1ccccc1F` (racemic) [Example 1, (±)-{4-Chloro-2-[5-(2-fluoro-benzylcarbamoyl)-4,5,6,7-tetrahydro-thiazolo[5,4-c]pyridin-4-yl]-phenoxy}-acetic acid] was 8.03; that for `Cc1ccccc1CCC(=O)N1CCc2ncsc2C1c1cc(Cl)ccc1OCC(=O)O` (racemic) [Example 29, (±)-{4-Chloro-2-[5-(3-o-tolyl-propionyl)-4,5,6,7-tetrahydro-thiazolo[5,4-c]pyridin-4-yl]-phenoxy}-acetic acid] was 7.59; that for `N#Cc1ccc(OCC(=O)O)c(C2c3scnc3CCN2C(=O)OCc2ccccc2)c1` (racemic) [Example 106, (±)-4-(2-Carboxymethoxy-5-cyano-phenyl)-6,7-dihydro-4H-thiazolo[5,4-c]pyridine-5-carboxylic acid benzyl ester] was 8.47.
